Source: article PMC9920246, “Entinostat-Bortezomib Hybrids against Multiple Myeloma” (Molecules, 2023)
Where two headings read alike, the source gives them in different places.

How the values were obtained:
RPMI 8226/BTZ100 cells = test: cells; assay type: cell-based, human; details: for IC50: read-out: IC50 Value Antiproliferative Activity RPMI 8226/BTZ100
[1] = test system: 3D co-culture spheroids containing RPMI 8226 cells and mesenchymal stem cells (MSC) in a 5:1 ratio; test: Antiproliferative assay in 3D co-culture spheroids (CellTiter-Glo 3D, 48 h); assay type: cell-based, human; details: RPMI 8226 + MSC 5:1 spheroids, mean ± SD, n = 3
Description: The multiple myeloma human plasma cells RPMI 8226 were purchased from American Type Culture Collection (ATCC, Manassas, VA, USA) and cultured in RPMI 1640 medium (Gibco, Paisley, UK) supplemented with 50 µg/mL streptomycin sulfate, 50 U/mL penicillin G sodium salt (Gibco, Grand Island, NY, USA) and 10% fetal bovine serum (FBS) (Biowest, Nuaillé, France). […] Human MSC from the bone marrow were purchased from PromoCell and were cultured in Mesenchymal Stem Cell Growth Medium 2 (PromoCell, Heidelberg, Germany) supplemented with 100 μg/mL streptomycin sulfate and 100 U/mL penicillin G sodium salt.
RPMI 8226 cells and MSC were mixed in a 5:1 ratio. The cell mixture was centrifuged, and medium containing 20% collagen I (Gibco) adjusted to pH 7 was added to the cell pellet. Five μL drops were plated in each well of an ice-cold 96-well ultra-low attachment U-bottom plate (Corning, Kennebunk, MA, USA) and the plate was incubated for 30 min at 37 °C and 5% CO2 atmosphere. After the incubation, 200 μL of RPMI 1640 medium (Gibco) supplemented with 50 µg/mL streptomycin sulfate, 50 U/mL penicillin G sodium salt (Gibco) and 10% FBS (Biowest) was added to each well. The 3D spheroids were formed after 48 h.
RPMI 8226 and RPMI 8226/BTZ100 cells were seeded in 96-well plates (Costar, Kennebunk, MA, USA) at a density of 15,000 cells per well and directly treated for 72 h with the various compounds using increasing concentrations (0.31–2000 nM). […] Following the treatment, 100 μL of medium was carefully removed from each well and collagenase (1.5 μL of a 100 mg/mL solution, Sigma) was added. The plate was shaken at 37 °C for 10 min at 350 rpm. Then, 100 μL of CellTiter-Glo 3D reagent (Promega, Fitchburg, WI, USA) was added to each well. The plate was incubated for 5 min at 37 °C under agitation at 250 rpm, followed by 25 min at room temperature without agitation. Finally, the luminescence was measured using a Cytation 3 plate reader (BioTek). The percentage of cell proliferation and calculation of the IC50 value were determined as previously described. Each compound was tested in triplicate in three independent experiments.

RPMI 8226 cells = test: Antiproliferative assay (XTT, 72 h); assay type: cell-based, human; details: for IC50: RPMI 8226 cells, 72 h, XTT, mean ± SD, n = 3; for Fold less active than compound 3 in RPMI 8226 cells: compared to compound 3
[2] = Drug combination of Ent and BTZ, antiproliferative effect (Combenefit, CompuSyn); assay type: cell-based; details: read-out: IC50 in drug combination experiment
Description: Combinations were evaluated using Combenefit data analysis.
Statistical analysis was performed in GraphPad Prism 9 (GraphPad) using one-way ANOVA for the proteasome inhibition assay. Combenefit (Cancer Research UK Cambridge Institute, Cambridge, UK) and CompuSyn software were used for drug combination analyses. The CI was calculated through the Chou-Talalay method using Compusyn. Data are expressed as mean ± standard deviation (SD).

HDAC = HDAC inhibitory activity in RPMI 8226 cells (MAL substrate, UHPLC-MS); assay type: cell-based, human; details: 10 µM, 8 h
Description: RPMI 8226 cells were seeded in 96-well plates (Costar) at a density of 15,000 cells per well in 25 µL of medium containing the HDAC substrate N-(4-methyl-7-aminocoumarinyl)-Nα-(t-butoxycarbonyl)-Nω-acetyllysineamide (21 µM, MAL, Sigma). The cells were directly treated with the compounds at 10 µM or with Ent (0.4–250 µM) for 8 h to obtain a final volume of 50 µL. […] Following the incubation, the reaction was stopped by adding 10 µL of 6X RIPA buffer, supplemented with protease inhibitor (Sigma). Then, 160 µL of cold acetonitrile were added and the plate was placed for 10 min at −80 °C. The plate was centrifuged at 5000× g for 10 min at 4 °C, and the supernatant was transferred into a UHPLC-adapted 96-well plate (Nunc 96-well plate conical bottom, ThermoFisher) and sealed. The substrate (MAL) and its deacetylated product (dMAL) were measured using a UHPLC-MS method as previously described. The percentage of HDAC inhibition is given by 100 − [(tested sample × 100/control sample)], and the dose-response curve of Ent was established.

26S proteasome = target: T1, 26S proteasome (Homo sapiens, UniProt P28074); test: Proteasome inhibitory activity (Suc-LLVY-amc) in RPMI 8226 cell lysate; assay type: biochemical
T1 sequence (P28074 60-263): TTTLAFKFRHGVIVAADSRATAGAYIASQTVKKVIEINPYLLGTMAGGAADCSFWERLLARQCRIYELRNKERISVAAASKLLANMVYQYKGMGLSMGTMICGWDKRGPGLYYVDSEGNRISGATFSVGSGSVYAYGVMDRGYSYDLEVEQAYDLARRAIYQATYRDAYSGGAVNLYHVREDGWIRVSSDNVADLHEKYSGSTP
Description: RPMI 8226 cells (1 × 10^6 cells/mL) were collected, centrifuged, and washed twice with cold PBS (Gibco). The supernatant was discarded, and 200 μL of ice-cold lysis buffer (NP40 cell lysis buffer (Invitrogen, Eugene, OR, USA), supplemented with 1 mM PMSF (Sigma) and protease inhibitor cocktail (Sigma), was added to the pellet. Cells were kept on ice for 30 min and vortexed every 10 min. Samples were then centrifuged at 4 °C for 10 min at 16,000× g. Supernatant containing the proteins was collected. Protein quantification was performed using the Coomassie (Bradford) Protein Assay Kit (ThermoFisher, Waltham, MA, USA) following the manufacturer instructions. In each well of a 96-well black plate (ThermoFisher), 10 µg of proteins were mixed with assay buffer (50 mM Tris-HCl, pH 7.5, 40 mM KCl, 5 mM MgCl2, 0.5 mM ATP, 1 mM DTT, 0.5 mg/mL BSA) in 180 µL total volume. […] The plate was then incubated for 30 min at 37 °C. After incubation, the reaction was started by adding the fluorometric peptide substrate Suc-LLVY-amc (Bio-Techne, Minneapolis, MN, USA) at a final concentration of 100 µM, except for the blank wells. Following 1 h incubation at 37 °C in the dark, the fluorescence signal was red (excitation: 380 nm, emission: 440–460 nm) using a Cytation 3 plate reader (BioTek). The percentage of 26S proteasome activity was measured by comparing the fluorescence of the sample treated with the vehicle control wells and multiplied by 100. The IC50 value was calculated as mentioned above, and each compound was tested in triplicate in three independent experiments.

| Structure (SMILES) | Increased resistance (RPMI 8226/BTZ100 vs. RPMI 8226) (RPMI 8226/BTZ100 cells) [fold] | IC50 (RPMI 8226/BTZ100 cells; Homo sapiens, RPMI-8226, 72 h) [nM] | IC50 ([1]; Homo sapiens) [nM] | IC50 (RPMI 8226 cells; Homo sapiens) [nM] | IC50 [2] [nM] | Increased resistance (RPMI 8226/BTZ100 vs. RPMI 8226) (RPMI 8226/BTZ100 cells; ratio of IC50 in resistant vs. parental cells) [fold] | Inhibition of HDAC activity (HDAC) [%] | Fold less active than compound 3 in RPMI 8226 cells (RPMI 8226 cells) | IC50 (26S proteasome; 26S proteasome in RPMI 8226 cell lysate, 30 min preincubation, Suc-LLVY-amc 100 µM, mean ± SD, n = 3; read-out: IC50 Value PI Activity) [nM] | IC50 (RPMI 8226/BTZ100 cells; RPMI 8226 cells resistant to BTZ, 72 h, XTT, mean ± SD, n = 3) [nM] | IC50 [1] [nM] | IC50 (RPMI 8226 cells) [nM] | IC50 (26S proteasome; read-out: IC50 Value PI Activity; 26S proteasome in RPMI 8226 cell lysate, 30 min preincubation, Suc-LLVY-amc 100 µM, mean ± SD, n = 3) [nM] |
| --- | --- | --- | --- | --- | --- | --- | --- | --- | --- | --- | --- | --- | --- |
| CC(C)C[C@H](NC(=O)[C@H](Cc1ccccc1)NC(=O)c1cnccn1)B(O)O [BTZ, bortezomib] | 116.8 | 245 ± 11.1 | 6.4 ± 1.6 | 2.1 ± 0.4 | 3.3 | – | – | – | – | – | – | – | – |
| CC(C)C[C@H](NC(=O)[C@@H](Cc1ccccc1)NC(=O)c1ccc(C(=O)Nc2ccccc2N)cc1)B1OC2CC3CC(C3(C)C)[C@]2(C)O1 (stereo partly drawn) [Compound 2, N^1-(2-aminophenyl)-N^4-((2R)-1-(((1R)-3-methyl-1-((3aS)-3a,5,5-trimethylhexahydro-4,6-methanobenzo[d][1,3,2]dioxaborol-2-yl)butyl)amino)-1-oxo-3-phenylpropan-2-yl)terephthalamide] | – | 112 ± 13 | 32.5 ± 7.5 | 37.1 ± 2.9 | – | 3.0 | 50 | ca. 4 times | 9.5 ± 2.3 | – | – | – | – |
| CC(C)C[C@H](NC(=O)[C@@H](Cc1ccc(N(CCCl)CCCl)cc1)NC(=O)c1cnc(C(=O)Nc2ccccc2N)cn1)B1OC2CC3CC(C3(C)C)[C@]2(C)O1 (stereo partly drawn) [Compound 11, N^2-(2-aminophenyl)-N^5-((2R)-3-(4-(bis(2-chloroethyl)amino)phenyl)-1-(((1R)-3-methyl-1-((3aS)-3a,5,5-trimethylhexahydro-4,6-methanobenzo[d][1,3,2]dioxaborol-2-yl)butyl)amino)-1-oxopropan-2-yl)pyrazine-2,5-dicarboxamide] | – | – | – | – | – | – | 25 | ~2.4 times | – | 462 ± 107 | 39.9 ± 12.1 | 22.9 ± 2.6 | > 50 |
